How the values were obtained:
Assay in all cases: Bliss interaction score (quartile over a dose matrix) (fitness difference); higher = more antagonism (negative = synergy)
S. pneumoniae D39V = test system: S. pneumoniae D39V
Method in brief: (§1)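 Fitness is OD595 at stationary-phase entry relative to the plate's robust no-drug mean, capped at 1. Single-drug fitness was inferred from combinations. The Bliss score is observed minus product-expected fitness, summarised by quartiles over technical, biological and donor/recipient replicates.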

B. subtilis 168 = test system: B. subtilis 168
Method in brief: as §1

S. aureus Newman = test system: S. aureus Newman
Method in brief: as §1

S. aureus DSM 20231 = test system: S. aureus DSM 20231
Method in brief: as §1
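Further: first quartile when negative (synergy) and third quartile when positive (antagonism).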

SMILES	Bliss interaction score (S. pneumoniae D39V)	Bliss interaction score (B. subtilis 168)	Bliss interaction score (S. aureus Newman)	Bliss interaction score (S. aureus DSM 20231)	Bliss interaction score (S. pneumoniae D39V; main component drawn)	Bliss interaction score (B. subtilis 168; main component drawn)	Bliss interaction score (S. aureus Newman; main component drawn)	Bliss interaction score (S. aureus DSM 20231; main component drawn)
O=C(O[C@@H]1Cc2c(O)cc(O)cc2O[C@@H]1c1cc(O)c(O)c(O)c1)c1cc(O)c(O)c(O)c1 [EGCG] + CN[C@H](CC(C)C)C(=O)N[C@H]1C(=O)N[C@@H](CC(N)=O)C(=O)N[C@H]2C(=O)N[C@H]3C(=O)N[C@H](C(=O)N[C@H](C(=O)O)c4cc(O)cc(O)c4-c4cc3ccc4O)[C@H](O[C@H]3C[C@](C)(N)[C@@H](O)[C@H](C)O3)c3ccc(c(Cl)c3)Oc3cc2cc(c3O[C@@H]2O[C@H](CO)[C@@H](O)[C@H](O)[C@H]2O[C@H]2C[C@](C)(NCc3ccc(-c4ccc(Cl)cc4)cc3)[C@@H](O)[C@H](C)O2)Oc2ccc(cc2Cl)[C@H]1O [Oritavancin]	0.0545	0.0249	0.318	0.176	–	–	–	–
CC(=O)O[C@H]1C[C@@]2(C)[C@@H](C[C@@H](O)[C@H]3[C@@]4(C)CC[C@@H](O)[C@@H](C)[C@@H]4CC[C@@]32C)/C1=C(\CCC=C(C)C)C(=O)O [Fusidic acid] + CN1C2=CC=CC=C2N=C3C1=CC=CC3=O [Pyocyanin]	0.0648	0.0385	0.0295	0.0421	–	–	–	–
CC[C@H]1OC(=O)[C@H](C)[C@@H](O[C@H]2C[C@@](C)(OC)[C@@H](O)[C@H](C)O2)[C@H](C)[C@@H](O[C@@H]2O[C@H](C)C[C@H](N(C)C)[C@H]2O)[C@](C)(OC)C[C@@H](C)C(=O)[C@H](C)[C@@H](O)[C@]1(C)O [Clarithromycin] + CO[C@@H]1[C@@H](OC(N)=O)[C@@H](O)[C@H](Oc2ccc3c(O)c(NC(=O)c4ccc(O)c(CC=C(C)C)c4)c(=O)oc3c2C)OC1(C)C [Novobiocin]	-0.0569	0.125	0.0643	-0.0522	–	–	–	–
CC(=O)OC[C@H]1O[C@@H]([S-])[C@H](OC(C)=O)[C@@H](OC(C)=O)[C@@H]1OC(C)=O.CCP(CC)CC.[Au+] [Auranofin] + CN1C2=CC=CC=C2N=C3C1=CC=CC3=O [Pyocyanin]	0.0818	-0.0273	-0.158	0.0747	–	–	–	–
C[C@@H](O)[C@H]1C(=O)N2C(C(=O)O)=C(SCCNC=N)C[C@H]12 [Imipenem] + Oc1cc(Cl)ccc1Oc1ccc(Cl)cc1Cl [Triclosan]	0.0753	-0.0589	0.0211	0.0376	–	–	–	–
CC(=O)OC[C@H]1O[C@@H]([S-])[C@H](OC(C)=O)[C@@H](OC(C)=O)[C@@H]1OC(C)=O.CCP(CC)CC.[Au+] [Auranofin] + C/C(=C\C(=O)OCCCCCCCCC(=O)O)C[C@@H]1OC[C@H](C[C@@H]2O[C@H]2[C@@H](C)[C@H](C)O)[C@@H](O)[C@H]1O [Pseudomonic acid]	0.081	0.0268	0.0254	0.0133	–	–	–	–
CC(=O)OC[C@H]1O[C@@H]([S-])[C@H](OC(C)=O)[C@@H](OC(C)=O)[C@@H]1OC(C)=O.CCP(CC)CC.[Au+] [Auranofin] + CCCCCCCCCC(=O)N[C@@H]1[C@H]([C@@H]([C@H](O[C@H]1OC2=C3C=C4C=C2OC5=C(C=C(C=C5)[C@H]([C@H]6C(=O)N[C@@H](C7=C(C(=CC(=C7)O)OC8[C@H]([C@H]([C@@H]([C@H](O8)CO)O)O)O)C9=C(C=CC(=C9)[C@H](C(=O)N6)NC(=O)[C@@H]4NC(=O)[C@@H]1C2=CC(=CC(=C2)OC2=C(C=CC(=C2)[C@H](C(=O)N[C@H](CC2=CC(=C(O3)C=C2)Cl)C(=O)N1)N)O)O)O)C(=O)O)O[C@H]1[C@@H]([C@H]([C@@H]([C@H](O1)CO)O)O)NC(=O)C)Cl)CO)O)O [Teicoplanin]	–	–	–	–	0.0761	-0.0433	0.0303	0.0469
N[C@@H]1CONC1=O [CycloserineD] + CC1=C\[C@@H](O)CC(=O)Cc2nc(co2)C(=O)N2CCC=C2C(=O)O[C@H](C(C)C)[C@H](C)/C=C/C(=O)NC\C=C\1 [Virginiamycin M1]	-0.0528	-0.0364	0.0587	0.101	–	–	–	–
CC(=O)OC[C@H]1O[C@@H]([S-])[C@H](OC(C)=O)[C@@H](OC(C)=O)[C@@H]1OC(C)=O.CCP(CC)CC.[Au+] [Auranofin] + O=C(O)c1cn(C2CC2)c2cc(N3CCNCC3)c(F)cc2c1=O [Ciprofloxacin]	-0.11	0.0472	0.0727	0.0217	–	–	–	–
CC(=O)O[C@H]1C[C@@]2(C)[C@@H](C[C@@H](O)[C@H]3[C@@]4(C)CC[C@@H](O)[C@@H](C)[C@@H]4CC[C@@]32C)/C1=C(\CCC=C(C)C)C(=O)O [Fusidic acid] + CN[C@H](CC(C)C)C(=O)N[C@H]1C(=O)N[C@@H](CC(N)=O)C(=O)N[C@H]2C(=O)N[C@H]3C(=O)N[C@H](C(=O)N[C@H](C(=O)O)c4cc(O)cc(O)c4-c4cc3ccc4O)[C@H](O[C@H]3C[C@](C)(N)[C@@H](O)[C@H](C)O3)c3ccc(c(Cl)c3)Oc3cc2cc(c3O[C@@H]2O[C@H](CO)[C@@H](O)[C@H](O)[C@H]2O[C@H]2C[C@](C)(NCc3ccc(-c4ccc(Cl)cc4)cc3)[C@@H](O)[C@H](C)O2)Oc2ccc(cc2Cl)[C@H]1O [Oritavancin]	0.0765	0.0477	0.0249	0.0159	–	–	–	–
CC(=O)OC[C@H]1O[C@@H]([S-])[C@H](OC(C)=O)[C@@H](OC(C)=O)[C@@H]1OC(C)=O.CCP(CC)CC.[Au+] [Auranofin] + CO/N=C(\C(=O)N[C@@H]1C(=O)N2C(C(=O)O)=C(COC(N)=O)CS[C@H]12)c1ccco1 [Cefuroxime]	0.0434	-0.0911	0.0517	-0.239	–	–	–	–
CC(=O)OC[C@H]1O[C@@H]([S-])[C@H](OC(C)=O)[C@@H](OC(C)=O)[C@@H]1OC(C)=O.CCP(CC)CC.[Au+] [Auranofin] + CCN(CC)CCOC(=O)c1ccc(N)cc1 [Procaine]	-0.0391	-0.0372	-0.0631	-0.0516	–	–	–	–
